≈ marks a conversion by molar mass, not a printed value.
Key:
histamine-H2 receptor = settings: well known; cited from earlier work
[1] = medium with a pH lower than 3
physchem = settings: for solubility at 5 h: distilled water, water, Saturation solubility, 5 hours stirring, UV at 277 nm
Description: The investigation was made as follows: the different forms were stirred in distilled water for 5 hours, and the concentration of the material in solution was determined by ultraviolet spectroscopy at 277 nm wavelength.

[2] = for Rolling angle (basic angle of the cone): funnel with tube of 5 mm diameter, opening 10 cm above the level of the material
Description: The data given here were measured according to the following scheme:
The form to be tested was filled into a funnel provided with a tube of 5 mm diameter, then the funnel was set into a position so that its opening was 10 cm above the level of the material.

[3] = for Electrostatic charging: amount of stuck material after knocking / Electrostatic charging: amount of stuck material without knocking: 37 g in glass dish of 120 mm, 1 minute rubbing; for Electrostatic charging: amount of stuck material after knocking: dish knocked 10 times
Description: (J) Electrostatic Charging
As there is no simple procedure to be carried out in an organic chemistry laboratory, the data presented below were measured as follows: Into a glass dish of 120 mm diameter 37 g of one of the forms were transferred and then the sample was stirred for 1 minute with rubbing with a flattened end glass-rod. Following this, the content of the dish was poured out without shaking, and the amount of stuck material was measured on a balance. Then the measurement was repeated so that the dish was knocked 10 times.

[4] = for Deformity ratio: ratio of longitudinal axis and greatest diameter, average of 250 grains
Description: (G) The Deformity Ratio of the Crystals
Deformity ratio means the ratio of the longitudinal axis and greatest diameter of the crystal.
The data were determined from the measurement of 250-250 grains by averaging.

[5] = for Compaction ratio: with / without compaction; for Bulk density with compaction: hand-vibrator for 5 minutes
[6] = 95:5 mixtures, water, 24 hours at 60° C.
Description: (I) Thermodynamic Stability
The test was made as follows: a mixture of the different forms in a ratio of 95:5 for both derivatives contaminated with the other polymorph was prepared, then the system was stirred with a magnetic stirrer for 24 hours at 60° C. so that water only covered the crystals. The crystals were then filtered and morphologically studied.

[7] = 10 mg in 100 ml distilled water
Description: The investigation was made as follows: 10-10 mg of the form to be tested were weighed into 100 ml of distilled water, under stirring. At appropriate times samples were taken from the system, and after filtration and appropriate dilution the amount of dissolved famotidine was determined by ultraviolet spectrophotometry.

[8] = form "A" vs form "B"

Structure (SMILES)	Rolling angle (basic angle of the cone) [2]	Electrostatic charging: amount of stuck material after knocking [3] [g]	Electrostatic charging: amount of stuck material without knocking [3] [g]	Deformity ratio [4]	Compaction ratio [5]	Bulk density with compaction [5] [g/L]	Bulk density without compaction [5] [g/L]	Thermodynamic stability [6]	Dynamic solubility at 2 min [7] [µg/mL]	Dynamic solubility at 5 min [7] [µg/mL]	Dynamic solubility at 10 min [7] [µg/mL]	Dynamic solubility at 1 hour [7] [µg/mL]	further results
N=C(N)Nc1nc(CSCCC(=N)NS(N)(=O)=O)cs1 [Famotidine, N-sulfamoyl-3-(2-guanidino-thiazole-4-yl-methylthio)-propionamidine]	–	–	–	–	–	–	–	–	–	–	–	–	histamine-H2 receptor blocking effect (histamine-H2 receptor): excellent; Hydrolysis of the amidino group [1]: highly capable of hydrolysis
NC(N)=Nc1nc(CSCCC(N)=NS(N)(=O)=O)cs1 [Form "B", N-sulfamoyl-3-(2-guanidino-thiazole-4-yl-methylthio)-propionamidine]	more than 55 °	10.0	13	4.70	1.47	505	340	metastabile	25	40	51	76	solubility at 5 h (physchem; unit given as mg): 980 µg/mL (≈ 2900 µM); Saturation solubility, comparison in words (physchem; form "B" vs form "A"): significantly higher; Slope of piled up sample at the beginning ([2]; rolling angle test, footnote x, correct rolling angle not measurable): 80-85 °; Electrostatic charging: amount attracted, times more than form "A" ([3]; form "B" vs form "A"): 20 times; Deformity ratio, times higher than form "A" ([4]; form "B" vs form "A"): 3.3 times
NC(N)=Nc1nc(CSCCC(N)=NS(N)(=O)=O)cs1 [Form "A", N-sulfamoyl-3-(2-guanidino-thiazole-4-yl-methylthio)-propionamidine]	41-42 °	0.5	2.8	1.40	1.38	960	695	stabile	19	25	42	72	Handling and stability, comparison in words [8]: unambiguously more advantageous; solubility at 5 h (physchem): 860 µg/mL (≈ 2550 µM)
